Values quoted from earlier work as cited in patent publication US20190038644A1, “PREPARATION FOR NASAL-NASOPHARYNGEAL TREATMENT” (priority 2017, published 2019).

How the values were obtained:
[1] = test system: E. Coli and other bacteria; details: versus fructose in cranberries
[2] = not metabolized like other sugars, does not alter blood sugar levels
[3] = test system: E. coli adherence to human uroepithelial cells; details: addition of 2.5% D-mannose to E. coli uroepithelial cell suspensions; even when epithelial cells highly receptive

SMILES: O=C[C@@H](O)[C@@H](O)[C@H](O)[C@H](O)CO [D-mannose]
- activity in inhibiting adherence relative to the fructose in cranberries [1]: 10 times
- entry into blood stream [2]: does not enter the blood stream
- inhibition of adherence of E. coli to uroepithelial cells [3]: completely inhibited adherence
